Reference: article PMC3407089, “Influence of GABAA Receptor α Subunit Isoforms on the Benzodiazepine Binding Site” (PLoS ONE, 2012)

Tests used:
[1] = biological target: α1T206Cβ2γ2 GABAA receptor (Rattus norvegicus, UniProt P18508+P62813, T233C); assay: Covalent reaction of 3-NCS at the binding level (residual radioligand binding, HEK293 membranes); conditions: 3-NCS 30 min on ice, washed; residual [^3H]Ro15–1788 binding
Method: (§1) cDNAs coding for the αx (x = 1, 2, 3, 6), β2, and γ2S subunits DNA (20 µg : 20 µg : 20 µg) per 9 cm diameter dish were transfected in human embryonic kidney (HEK) 293 cells (American Type of Culture Collection, MD, USA, CRL 1573) using the calcium phosphate precipitation technique. For α5 containing receptors β2 was replaced by β1. […] Culturing of cells and membrane preparation were done as described before.
(§2) As detailed in previous work, [30], [33] this procedure included three steps: incubation of membranes expressing recombinant wild type or mutant receptors with the reactive agent followed by extensive washing of the membranes in order to remove non-reacted compound and a radioactive ligand binding assay to determine residual binding. No covalent reaction would result in 100% residual binding, and 100% covalent reaction would result in 0% residual binding.
(§3) Briefly, the membranes were re-suspended in phosphate buffer (100 mM KCl, 10 mM KH2PO4, 0.1 mM EDTA, pH 7.4) using a Glass/Teflon homogenizer. 0.1–1.0 mg/mL of protein were incubated in a total volume of 360 µL with either 10 µM (determination of degree of covalent reaction) or several concentrations of 3-NCS for 30 min on ice. Membranes were collected with rapid filtration on a round 7 mm diameter glass fiber filter (GF/C; Whatman) that was placed on a round 24 mm diameter glass fiber filter (GF/C; Whatman), both pre-washed with phosphate buffer. The reaction of 3-NCS with the receptor was stopped by washing of the filters six times with 5 mL phosphate buffer, each. The small filters with the deposited membranes were incubated in 0.12 mL phosphate buffer containing 5 nM [^3H]Ro15–1788. After 30 min the 7 mm filter was placed on a 24 mm filter and washed six times with 5 mL phosphate buffer each. Radioactivity was determined by liquid scintillation counting. Non-specific binding was determined in the presence of 100 µM Ro 15–1788. In control experiments, washing efficiency was estimated by placing radioactivity on the small filter. More than 99.95% of the radioactivity was removed (not shown).
(§4) Concentration response curves for 3-NCS were fitted with the equation C(c) = Cmax/(1+(EC50/c)), where c is the concentration of 3-NCS, EC50 the concentration of 3-NCS where half maximal covalent reaction was observed, Cmax is the maximal extent of the covalent reaction and C the measured extent of the covalent reaction.

[2] = biological target: α2S204Cβ2γ2 GABAA receptor (Rattus norvegicus, UniProt P18508+P23576, S232C); assay: as above
Method: as §1, §2, §3, §4

[3] = biological target: α2T206Cβ2γ2 GABAA receptor (Rattus norvegicus, UniProt P18508+P23576, T234C); assay: as above
Method: as §1, §2, §3, §4

[4] = biological target: α5S209Cβ1γ2 GABAA receptor (Rattus norvegicus, UniProt P18508+P19969, S240C); assay: as above
Method: as §1, §2, §3, §4

[5] = biological target: α5T210Cβ1γ2 GABAA receptor (Rattus norvegicus, UniProt P18508+P19969, T241C); assay: as above
Method: as §1, §2, §3, §4

mutated GABAA receptors = assay: Time course of covalent reaction at the binding level (preliminary experiments); conditions: 10 µM and 1 µM 3-NCS, not shown
Method: as §2
as §3, with “The reaction of 3-NCS with the receptor was stopped by washing of the filters six times with 5 mL phosphate buffer, each. The small filters with the deposited membranes were incubated in 0.12 mL phosphate buffer containing 5 nM [^3H]Ro15–1788. After 30 min the 7 mm filter was placed on a 24 mm filter and washed six times with 5 mL phosphate buffer each.” left out

[6] = tested on: α1S204Cβ2γ2 GABAA receptor; parameters: method as in PMID 19804380; conditions: 10 µM 3-NCS; cited from earlier work
[7] = 3-NCS 30 min on ice, washed, residual [^3H]Ro15–1788 binding
[8] = 0.5 h, 10 µM 3-NCS, mutation homologous to α1T206, n = 3, read-out: Extent of covalent reaction (100% minus % residual binding)

Chain of α5S209Cβ1γ2 GABAA receptor (P19969 26-464 S240C): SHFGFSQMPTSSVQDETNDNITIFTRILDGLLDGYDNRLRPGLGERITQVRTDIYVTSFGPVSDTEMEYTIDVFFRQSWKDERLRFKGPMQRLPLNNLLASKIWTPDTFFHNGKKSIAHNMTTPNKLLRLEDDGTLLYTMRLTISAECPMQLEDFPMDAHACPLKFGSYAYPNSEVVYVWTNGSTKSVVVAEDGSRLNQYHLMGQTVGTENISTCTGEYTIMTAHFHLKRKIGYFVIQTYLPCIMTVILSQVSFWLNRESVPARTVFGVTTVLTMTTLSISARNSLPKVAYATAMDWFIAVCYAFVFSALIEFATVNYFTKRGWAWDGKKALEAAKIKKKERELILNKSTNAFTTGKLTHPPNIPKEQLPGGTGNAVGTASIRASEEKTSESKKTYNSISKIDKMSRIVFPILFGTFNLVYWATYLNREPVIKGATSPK
Chain of α5S209Cβ1γ2 GABAA receptor (P18508 39-466, stated change not applied): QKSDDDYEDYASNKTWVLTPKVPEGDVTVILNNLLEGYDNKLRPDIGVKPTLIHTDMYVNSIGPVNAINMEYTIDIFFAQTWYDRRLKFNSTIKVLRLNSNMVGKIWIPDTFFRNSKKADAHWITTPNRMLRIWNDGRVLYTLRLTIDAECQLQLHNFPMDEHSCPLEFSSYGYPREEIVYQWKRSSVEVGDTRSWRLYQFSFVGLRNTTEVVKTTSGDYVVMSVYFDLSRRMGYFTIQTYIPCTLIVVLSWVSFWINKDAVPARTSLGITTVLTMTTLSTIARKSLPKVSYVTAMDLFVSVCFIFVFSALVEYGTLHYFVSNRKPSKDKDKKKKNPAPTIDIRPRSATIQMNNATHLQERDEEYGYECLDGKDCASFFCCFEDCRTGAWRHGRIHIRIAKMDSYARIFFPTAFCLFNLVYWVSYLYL
Chain of α5S209Cβ1γ2 GABAA receptor (P15431 26-474 partner): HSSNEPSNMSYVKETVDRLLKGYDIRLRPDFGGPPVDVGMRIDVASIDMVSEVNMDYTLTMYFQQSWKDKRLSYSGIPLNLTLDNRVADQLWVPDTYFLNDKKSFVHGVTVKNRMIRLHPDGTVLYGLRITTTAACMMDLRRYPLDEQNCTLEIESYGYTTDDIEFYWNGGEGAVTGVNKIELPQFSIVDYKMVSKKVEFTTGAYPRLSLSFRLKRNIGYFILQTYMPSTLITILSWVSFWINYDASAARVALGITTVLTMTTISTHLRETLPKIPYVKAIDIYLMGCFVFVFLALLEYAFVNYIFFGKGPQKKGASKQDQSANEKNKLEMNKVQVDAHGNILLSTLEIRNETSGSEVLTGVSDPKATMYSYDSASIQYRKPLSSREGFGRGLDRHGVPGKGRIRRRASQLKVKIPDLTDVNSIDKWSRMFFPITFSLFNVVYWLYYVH
Chain of α5T210Cβ1γ2 GABAA receptor (P19969 26-464 T241C): as the sequence (P19969 26-464 S240C) above, with C215S, T216C counted along it
Chain of α5T210Cβ1γ2 GABAA receptor (P18508 39-466): as the sequence (P18508 39-466, stated change not applied) above
Chain of α5T210Cβ1γ2 GABAA receptor (P15431 26-474 partner): as the sequence (P15431 26-474 partner) above
Chain of α2S204Cβ2γ2 GABAA receptor (P23576 29-451 S232C): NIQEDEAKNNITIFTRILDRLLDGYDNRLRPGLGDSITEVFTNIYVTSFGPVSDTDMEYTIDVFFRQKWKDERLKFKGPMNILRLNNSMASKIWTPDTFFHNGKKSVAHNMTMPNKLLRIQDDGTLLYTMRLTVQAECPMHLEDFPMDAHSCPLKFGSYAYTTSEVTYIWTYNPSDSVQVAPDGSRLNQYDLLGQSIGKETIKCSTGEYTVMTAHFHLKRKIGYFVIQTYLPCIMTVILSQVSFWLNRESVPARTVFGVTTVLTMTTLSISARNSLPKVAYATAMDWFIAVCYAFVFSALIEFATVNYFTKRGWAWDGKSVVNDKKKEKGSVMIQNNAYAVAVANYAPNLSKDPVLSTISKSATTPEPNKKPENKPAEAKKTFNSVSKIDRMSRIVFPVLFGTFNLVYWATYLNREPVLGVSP
Chain of α2S204Cβ2γ2 GABAA receptor (P18508 39-466): as the sequence (P18508 39-466, stated change not applied) above
Chain of α2S204Cβ2γ2 GABAA receptor (P63138 26-474 partner): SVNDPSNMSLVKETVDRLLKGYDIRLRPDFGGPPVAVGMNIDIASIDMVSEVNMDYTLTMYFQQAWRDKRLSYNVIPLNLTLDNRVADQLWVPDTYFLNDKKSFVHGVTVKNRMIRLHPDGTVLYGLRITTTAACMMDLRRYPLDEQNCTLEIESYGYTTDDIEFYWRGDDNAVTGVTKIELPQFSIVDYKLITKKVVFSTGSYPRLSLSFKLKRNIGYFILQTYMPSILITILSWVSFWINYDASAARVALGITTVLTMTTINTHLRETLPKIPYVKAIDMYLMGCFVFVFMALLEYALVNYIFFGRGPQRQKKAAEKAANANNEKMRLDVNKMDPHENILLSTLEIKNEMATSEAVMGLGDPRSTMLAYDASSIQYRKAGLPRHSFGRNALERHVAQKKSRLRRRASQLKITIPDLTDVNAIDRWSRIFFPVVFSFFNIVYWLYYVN
Chain of α2T206Cβ2γ2 GABAA receptor (P23576 29-451 T234C): as the sequence (P23576 29-451 S232C) above, with C204S, T206C counted along it
Chain of α2T206Cβ2γ2 GABAA receptor (P18508 39-466): as the sequence (P18508 39-466, stated change not applied) above
Chain of α2T206Cβ2γ2 GABAA receptor (P63138 26-474 partner): as the sequence (P63138 26-474 partner) above
Chain of α1T206Cβ2γ2 GABAA receptor (P62813 28-455 T233C): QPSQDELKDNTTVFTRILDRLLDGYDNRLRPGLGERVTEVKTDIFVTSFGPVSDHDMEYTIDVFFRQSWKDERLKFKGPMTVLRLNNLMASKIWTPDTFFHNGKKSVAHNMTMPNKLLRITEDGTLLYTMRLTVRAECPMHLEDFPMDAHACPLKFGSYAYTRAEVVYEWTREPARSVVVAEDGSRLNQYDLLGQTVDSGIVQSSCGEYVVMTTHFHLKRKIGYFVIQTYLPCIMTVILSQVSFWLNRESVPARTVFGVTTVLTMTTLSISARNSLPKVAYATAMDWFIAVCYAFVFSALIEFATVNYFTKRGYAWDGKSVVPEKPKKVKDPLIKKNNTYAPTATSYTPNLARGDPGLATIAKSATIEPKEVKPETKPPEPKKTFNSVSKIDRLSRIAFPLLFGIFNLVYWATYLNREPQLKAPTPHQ
Chain of α1T206Cβ2γ2 GABAA receptor (P18508 39-466): as the sequence (P18508 39-466, stated change not applied) above
Chain of α1T206Cβ2γ2 GABAA receptor (P63138 26-474 partner): as the sequence (P63138 26-474 partner) above

CN1C(=O)C(N=C=S)N=C(c2ccccc2)c2cc([N+](=O)[O-])ccc21 (centres unmarked) [3-NCS]
EC50 [1]: 82 ± 28 nM
EC50 [2, 7]: 3200 ± 2300 nM
inhibition at 10 µM ([2]; 0.5 h, 10 µM 3-NCS, mutation homologous to α1S204, n = 3, read-out: Extent of covalent reaction (100% minus % residual binding)): 52%
EC50 [3, 7]: 190 ± 56 nM
inhibition at 10 µM [3, 8]: 54%
EC50 [4, 7]: 4100 ± 2200 nM
inhibition at 10 µM ([4]; 0.5 h, 10 µM 3-NCS, mutation homologous to α1S205, n = 3, read-out: Extent of covalent reaction (100% minus % residual binding)): 54%
EC50 [5, 7]: 450 ± 150 nM
inhibition at 10 µM [5, 8]: 73%
Time to maximum of covalent reaction (mutated GABAA receptors): ≤ 15 s
Covalent reaction with 3-NCS (in words) [6]: did not covalently react
